Reference: the NIST ThermoML archive (doi:10.1016/j.jct.2009.01.012)
± gives the expanded uncertainty stated by the source.

Legend:
[1] = 101.33 kPa, Liquid, Vibrating tube method
[2] = refractive index (Na D-line) (dimensionless); details: 101.33 kPa, Liquid, Standard Abbe refractometry

| Structure (SMILES) | mass density ([1]; 293.15 K) [kg/m3] | mass density ([1]; 298.15 K) [kg/m3] | mass density ([1]; 313.15 K) [kg/m3] | mass density ([1]; 333.15 K) [kg/m3] | refractive index ([2]; 293.15 K) | refractive index ([2]; 298.15 K) | refractive index ([2]; 313.15 K) | refractive index ([2]; 333.15 K) |
| --- | --- | --- | --- | --- | --- | --- | --- | --- |
| CCCCCC[n+]1ccn(C)c1.O=S(=O)([N-]S(=O)(=O)C(F)(F)F)C(F)(F)F | 1375.5 ± 2.1 | 1371 ± 2.1 | 1357.2 ± 2.1 | 1339.1 ± 2.1 | 1.43155 ± 0.0008 | 1.42954 ± 0.00075 | 1.42552 ± 0.00074 | 1.4205 ± 0.00074 |
| CCCCCCCCCCCCCCn1cc[n+](C)c1.O=S(=O)([N-]S(=O)(=O)C(F)(F)F)C(F)(F)F | – | – | 1200.6 ± 2 | 1184 ± 2 | – | – | 1.43456 ± 0.00076 | 1.42854 ± 0.00076 |
| CCCCn1cc[n+](C)c1.F[P-](F)(F)(F)(F)F [1-butyl-3-methylimidazolium hexafluorophosphate] | 1367.9 ± 2.1 | 1363.7 ± 2.1 | 1351.3 ± 2.1 | 1334.9 ± 2.1 | 1.41045 ± 0.0008 | 1.40844 ± 0.00073 | 1.40543 ± 0.00073 | 1.4004 ± 0.00074 |
| CC(=O)[O-].CCCCCCCCCCCCCC[P+](CCCCCC)(CCCCCC)CCCCCC [trihexyl(tetradecyl)phosphonium acetate] | 894.5 ± 2.1 | 891.3 ± 2.1 | 882.3 ± 2.1 | 870.4 ± 2.1 | 1.48377 ± 0.00087 | 1.48176 ± 0.00085 | 1.47674 ± 0.00084 | 1.47072 ± 0.00083 |
| CCCCn1cc[n+](C)c1.O=S(=O)([O-])C(F)(F)F [1-butyl-3-methylimidazolium trifluoromethanesulfonate] | 1303.5 ± 2 | 1299.5 ± 2 | 1287.7 ± 2 | 1272.1 ± 2 | 1.43758 ± 0.00072 | 1.43657 ± 0.00076 | 1.43155 ± 0.00076 | 1.42552 ± 0.00076 |
| CCn1cc[n+](C)c1.O=S(=O)([N-]S(=O)(=O)C(F)(F)F)C(F)(F)F | 1519.7 ± 2.1 | 1514.7 ± 2.1 | 1499.6 ± 2.1 | 1479.7 ± 2.1 | 1.42351 ± 0.00072 | 1.42251 ± 0.00074 | 1.41849 ± 0.00074 | 1.41346 ± 0.00074 |
| CCCCCCn1cc[n+](C)c1.F[P-](F)(F)(F)(F)F [1-hexyl-3-methylimidazolium hexafluorophosphate] | 1296.4 ± 2 | 1292.4 ± 2 | 1280.4 ± 2 | 1264.9 ± 2 | 1.41849 ± 0.0008 | 1.41648 ± 0.00073 | 1.41346 ± 0.00073 | 1.40844 ± 0.00074 |
| CCCCn1cc[n+](C)c1.COS(=O)(=O)[O-] [1-butyl-3-methylimidazolium methyl sulfate] | 1214.7 ± 2 | 1211.3 ± 2 | 1201.5 ± 2 | 1188.4 ± 2 | 1.47876 ± 0.00072 | 1.47775 ± 0.00072 | 1.47473 ± 0.00073 | 1.46971 ± 0.00074 |
| CC(=O)[O-].CCCCn1cc[n+](C)c1 [1-butyl-3-methylimidazolium acetate] | 1056.2 ± 2.2 | 1053.2 ± 2.2 | 1044 ± 2.2 | 1032.2 ± 2.2 | 1.49481 ± 0.0008 | 1.49381 ± 0.00083 | 1.48879 ± 0.00083 | 1.48377 ± 0.00081 |
